Results published in PubChem BioAssay (NCI).
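Method: 48-hour compound exposure of cells in 96-well plates, five concentrations, linear interpolation of endpoints. Definition used: TGI = concentration required for complete inhibition of growth.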

Tested on: SK-MEL-2 melanoma
Assay: NCI-60 cell line screen, 48 h

Row | Compound | TGI
1 | CCCC(=O)N(C(=O)CCC)C1=C(Cl)C(=O)c2ccccc2C1=O | 24 µM
2 | COc1ccc(-c2cn3c(nc4ccccc43)c(/C=C/c3cccs3)n2)cc1 | 45.6 µM
3 | O=C(Nc1c(Cl)cccc1Cl)c1c(Cl)c(Cl)c(Cl)c(Cl)c1-c1nc2ccccc2[nH]1 | > 100 µM
4 | CCC1=C(C)C(=O)N/C1=C\c1[nH]c(C)c([C@H](C)CCN)c1C | 35.1 µM

Tested on: OVCAR-5 ovarian
Assay: NCI-60 cell line screen, 48 h

Row | Compound | TGI
5 | CCCC(=O)N(C(=O)CCC)C1=C(Cl)C(=O)c2ccccc2C1=O | 26 µM
6 | Cc1ccc(C)c2c1C/C(=C\c1ccccc1C(=O)O)C2=O | > 100 µM
7 | COc1ccc(-c2cn3c(nc4ccccc43)c(/C=C/c3cccs3)n2)cc1 | > 100 µM
8 | O=C(Nc1c(Cl)cccc1Cl)c1c(Cl)c(Cl)c(Cl)c(Cl)c1-c1nc2ccccc2[nH]1 | > 100 µM
9 | CCC1=C(C)C(=O)N/C1=C\c1[nH]c(C)c([C@H](C)CCN)c1C | 31.7 µM

Tested on: MALME-3M melanoma
Assay: NCI-60 cell line screen, 48 h

Row | Compound | TGI
10 | Cc1ccc(C)c2c1C/C(=C\c1ccccc1C(=O)O)C2=O | > 100 µM
11 | COc1ccc(-c2cn3c(nc4ccccc43)c(/C=C/c3cccs3)n2)cc1 | > 100 µM
12 | O=C(Nc1c(Cl)cccc1Cl)c1c(Cl)c(Cl)c(Cl)c(Cl)c1-c1nc2ccccc2[nH]1 | > 100 µM
13 | CCC1=C(C)C(=O)N/C1=C\c1[nH]c(C)c([C@H](C)CCN)c1C | 32.8 µM

Tested on: HOP-62 NSCLC
Assay: NCI-60 cell line screen, 48 h

Row | Compound | TGI
14 | CCCC(=O)N(C(=O)CCC)C1=C(Cl)C(=O)c2ccccc2C1=O | 24.1 µM
15 | Cc1ccc(C)c2c1C/C(=C\c1ccccc1C(=O)O)C2=O | > 100 µM
16 | COc1ccc(-c2cn3c(nc4ccccc43)c(/C=C/c3cccs3)n2)cc1 | > 100 µM
17 | O=C(Nc1c(Cl)cccc1Cl)c1c(Cl)c(Cl)c(Cl)c(Cl)c1-c1nc2ccccc2[nH]1 | > 100 µM
18 | CCC1=C(C)C(=O)N/C1=C\c1[nH]c(C)c([C@H](C)CCN)c1C | 32.7 µM

Tested on: SW-620 colon
Assay: NCI-60 cell line screen, 48 h

Row | Compound | TGI
19 | CCCC(=O)N(C(=O)CCC)C1=C(Cl)C(=O)c2ccccc2C1=O | 14.5 µM
20 | Cc1ccc(C)c2c1C/C(=C\c1ccccc1C(=O)O)C2=O | > 100 µM
21 | COc1ccc(-c2cn3c(nc4ccccc43)c(/C=C/c3cccs3)n2)cc1 | > 100 µM
22 | O=C(Nc1c(Cl)cccc1Cl)c1c(Cl)c(Cl)c(Cl)c(Cl)c1-c1nc2ccccc2[nH]1 | > 100 µM
23 | CCC1=C(C)C(=O)N/C1=C\c1[nH]c(C)c([C@H](C)CCN)c1C | 35.1 µM

Tested on: HCT-116 colon
Assay: NCI-60 cell line screen, 48 h

Row | Compound | TGI
24 | CCCC(=O)N(C(=O)CCC)C1=C(Cl)C(=O)c2ccccc2C1=O | > 33.1 µM
25 | Cc1ccc(C)c2c1C/C(=C\c1ccccc1C(=O)O)C2=O | > 100 µM
26 | COc1ccc(-c2cn3c(nc4ccccc43)c(/C=C/c3cccs3)n2)cc1 | > 100 µM
27 | O=C(Nc1c(Cl)cccc1Cl)c1c(Cl)c(Cl)c(Cl)c(Cl)c1-c1nc2ccccc2[nH]1 | > 100 µM
28 | CCC1=C(C)C(=O)N/C1=C\c1[nH]c(C)c([C@H](C)CCN)c1C | 27.6 µM

Tested on: SK-OV-3 ovarian
Assay: NCI-60 cell line screen, 48 h

Row | Compound | TGI
29 | CCCC(=O)N(C(=O)CCC)C1=C(Cl)C(=O)c2ccccc2C1=O | 34.4 µM
30 | COc1ccc(-c2cn3c(nc4ccccc43)c(/C=C/c3cccs3)n2)cc1 | > 100 µM
31 | O=C(Nc1c(Cl)cccc1Cl)c1c(Cl)c(Cl)c(Cl)c(Cl)c1-c1nc2ccccc2[nH]1 | > 100 µM
32 | CCC1=C(C)C(=O)N/C1=C\c1[nH]c(C)c([C@H](C)CCN)c1C | 31.5 µM

Tested on: K-562 leukemia
Assay: NCI-60 cell line screen, 48 h

Row | Compound | TGI
33 | CCCC(=O)N(C(=O)CCC)C1=C(Cl)C(=O)c2ccccc2C1=O | 5.01 µM
34 | Cc1ccc(C)c2c1C/C(=C\c1ccccc1C(=O)O)C2=O | > 100 µM
35 | COc1ccc(-c2cn3c(nc4ccccc43)c(/C=C/c3cccs3)n2)cc1 | > 100 µM
36 | O=C(Nc1c(Cl)cccc1Cl)c1c(Cl)c(Cl)c(Cl)c(Cl)c1-c1nc2ccccc2[nH]1 | > 100 µM
37 | CCC1=C(C)C(=O)N/C1=C\c1[nH]c(C)c([C@H](C)CCN)c1C | > 100 µM

Tested on: SK-MEL-28 melanoma
Assay: NCI-60 cell line screen, 48 h

Row | Compound | TGI
38 | CCCC(=O)N(C(=O)CCC)C1=C(Cl)C(=O)c2ccccc2C1=O | 13.6 µM
39 | Cc1ccc(C)c2c1C/C(=C\c1ccccc1C(=O)O)C2=O | > 100 µM
40 | COc1ccc(-c2cn3c(nc4ccccc43)c(/C=C/c3cccs3)n2)cc1 | > 100 µM
41 | O=C(Nc1c(Cl)cccc1Cl)c1c(Cl)c(Cl)c(Cl)c(Cl)c1-c1nc2ccccc2[nH]1 | > 100 µM
42 | CCC1=C(C)C(=O)N/C1=C\c1[nH]c(C)c([C@H](C)CCN)c1C | 32.5 µM

Tested on: ACHN renal
Assay: NCI-60 cell line screen, 48 h

Row | Compound | TGI
43 | CCCC(=O)N(C(=O)CCC)C1=C(Cl)C(=O)c2ccccc2C1=O | 2.71 µM
44 | Cc1ccc(C)c2c1C/C(=C\c1ccccc1C(=O)O)C2=O | > 100 µM
45 | COc1ccc(-c2cn3c(nc4ccccc43)c(/C=C/c3cccs3)n2)cc1 | > 100 µM
46 | O=C(Nc1c(Cl)cccc1Cl)c1c(Cl)c(Cl)c(Cl)c(Cl)c1-c1nc2ccccc2[nH]1 | > 100 µM
47 | CCC1=C(C)C(=O)N/C1=C\c1[nH]c(C)c([C@H](C)CCN)c1C | 32.9 µM

Tested on: LOX IMVI melanoma
Assay: NCI-60 cell line screen, 48 h

Row | Compound | TGI
48 | CCCC(=O)N(C(=O)CCC)C1=C(Cl)C(=O)c2ccccc2C1=O | 17.8 µM
49 | Cc1ccc(C)c2c1C/C(=C\c1ccccc1C(=O)O)C2=O | > 100 µM
50 | COc1ccc(-c2cn3c(nc4ccccc43)c(/C=C/c3cccs3)n2)cc1 | > 100 µM
51 | O=C(Nc1c(Cl)cccc1Cl)c1c(Cl)c(Cl)c(Cl)c(Cl)c1-c1nc2ccccc2[nH]1 | > 100 µM
52 | CCC1=C(C)C(=O)N/C1=C\c1[nH]c(C)c([C@H](C)CCN)c1C | 28.7 µM

Tested on: A549 NSCLC
Assay: NCI-60 cell line screen, 48 h

Row | Compound | TGI
53 | CCCC(=O)N(C(=O)CCC)C1=C(Cl)C(=O)c2ccccc2C1=O | > 52.8 µM
54 | Cc1ccc(C)c2c1C/C(=C\c1ccccc1C(=O)O)C2=O | > 100 µM
55 | COc1ccc(-c2cn3c(nc4ccccc43)c(/C=C/c3cccs3)n2)cc1 | > 100 µM
56 | O=C(Nc1c(Cl)cccc1Cl)c1c(Cl)c(Cl)c(Cl)c(Cl)c1-c1nc2ccccc2[nH]1 | > 100 µM
57 | CCC1=C(C)C(=O)N/C1=C\c1[nH]c(C)c([C@H](C)CCN)c1C | 34.3 µM

Tested on: HT29 colon
Assay: NCI-60 cell line screen, 48 h

Row | Compound | TGI
58 | CCCC(=O)N(C(=O)CCC)C1=C(Cl)C(=O)c2ccccc2C1=O | 31.2 µM
59 | Cc1ccc(C)c2c1C/C(=C\c1ccccc1C(=O)O)C2=O | > 100 µM
60 | COc1ccc(-c2cn3c(nc4ccccc43)c(/C=C/c3cccs3)n2)cc1 | > 100 µM
61 | O=C(Nc1c(Cl)cccc1Cl)c1c(Cl)c(Cl)c(Cl)c(Cl)c1-c1nc2ccccc2[nH]1 | > 100 µM
62 | CCC1=C(C)C(=O)N/C1=C\c1[nH]c(C)c([C@H](C)CCN)c1C | 29.6 µM

Tested on: M14 melanoma
Assay: NCI-60 cell line screen, 48 h

Row | Compound | TGI
63 | CCCC(=O)N(C(=O)CCC)C1=C(Cl)C(=O)c2ccccc2C1=O | 25.8 µM
64 | Cc1ccc(C)c2c1C/C(=C\c1ccccc1C(=O)O)C2=O | > 100 µM
65 | COc1ccc(-c2cn3c(nc4ccccc43)c(/C=C/c3cccs3)n2)cc1 | > 100 µM
66 | O=C(Nc1c(Cl)cccc1Cl)c1c(Cl)c(Cl)c(Cl)c(Cl)c1-c1nc2ccccc2[nH]1 | > 100 µM
67 | CCC1=C(C)C(=O)N/C1=C\c1[nH]c(C)c([C@H](C)CCN)c1C | 30.4 µM
